Data from patent US20190292189A1, “LIM KINASE INHIBITORS” (VIRONGY, LLC, priority 2016, published 2019).
pIC50: −log10 of the molar value. Where two headings read alike, the source gives them in different places.

Experiments:
JNK3 = JNK3 (Homo sapiens, UniProt P53779); test: JNK3 biochemical counter-screen; conditions: Table 6; read-out: Biochemical Inhibition IC50 (nM) JNK3
P450 3A4 = P450 3A4 (Homo sapiens, UniProt P08684); test: P450 inhibition at 10 μM; assay type: in vitro ADME
P450 2D6 = P450 2D6 (Homo sapiens, UniProt P10635); test: P450 inhibition at 10 μM; assay type: in vitro ADME
Sequence of P450 2D6 (P10635 whole entry): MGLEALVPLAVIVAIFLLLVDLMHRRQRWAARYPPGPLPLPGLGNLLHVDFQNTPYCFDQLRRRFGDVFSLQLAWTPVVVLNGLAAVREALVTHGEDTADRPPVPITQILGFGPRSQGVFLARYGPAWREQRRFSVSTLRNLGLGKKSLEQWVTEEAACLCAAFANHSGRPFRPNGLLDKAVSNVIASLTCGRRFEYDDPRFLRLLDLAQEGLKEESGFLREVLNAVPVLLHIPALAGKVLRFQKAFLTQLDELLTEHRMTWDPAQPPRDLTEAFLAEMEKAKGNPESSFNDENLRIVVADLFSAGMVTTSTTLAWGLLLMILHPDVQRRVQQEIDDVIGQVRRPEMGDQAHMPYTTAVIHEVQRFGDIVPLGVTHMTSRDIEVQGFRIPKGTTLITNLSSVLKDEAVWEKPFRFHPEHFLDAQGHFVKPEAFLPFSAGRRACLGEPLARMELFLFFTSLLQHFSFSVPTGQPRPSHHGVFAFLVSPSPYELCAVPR

P450 2C9 = P450 2C9 (Homo sapiens, UniProt P11712); test: P450 inhibition at 10 μM; assay type: in vitro ADME
Sequence of P450 2C9 (P11712 whole entry): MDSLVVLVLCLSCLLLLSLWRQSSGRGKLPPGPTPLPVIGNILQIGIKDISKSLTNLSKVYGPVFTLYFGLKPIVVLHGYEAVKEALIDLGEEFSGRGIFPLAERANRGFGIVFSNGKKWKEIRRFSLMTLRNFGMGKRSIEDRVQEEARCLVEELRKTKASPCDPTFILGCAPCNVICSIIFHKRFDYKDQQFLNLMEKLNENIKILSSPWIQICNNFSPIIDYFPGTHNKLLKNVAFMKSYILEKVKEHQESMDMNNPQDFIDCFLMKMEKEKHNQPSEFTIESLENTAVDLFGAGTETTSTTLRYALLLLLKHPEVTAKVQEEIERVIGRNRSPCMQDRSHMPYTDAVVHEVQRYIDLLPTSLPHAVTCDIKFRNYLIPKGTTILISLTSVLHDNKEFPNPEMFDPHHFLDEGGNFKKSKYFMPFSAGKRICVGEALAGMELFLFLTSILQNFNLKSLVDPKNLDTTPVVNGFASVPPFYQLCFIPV

Limk1 = Limk1 (Homo sapiens, UniProt P53667); test: Limk1 biochemical assay (Reaction Biology, 10-dose IC50); parameters: His; purchased Reaction Biology Corporation; host or cells: insect cells; conditions: for IC50: means of ≥2 experiments
Sequence of Limk1 (P53667 285-638): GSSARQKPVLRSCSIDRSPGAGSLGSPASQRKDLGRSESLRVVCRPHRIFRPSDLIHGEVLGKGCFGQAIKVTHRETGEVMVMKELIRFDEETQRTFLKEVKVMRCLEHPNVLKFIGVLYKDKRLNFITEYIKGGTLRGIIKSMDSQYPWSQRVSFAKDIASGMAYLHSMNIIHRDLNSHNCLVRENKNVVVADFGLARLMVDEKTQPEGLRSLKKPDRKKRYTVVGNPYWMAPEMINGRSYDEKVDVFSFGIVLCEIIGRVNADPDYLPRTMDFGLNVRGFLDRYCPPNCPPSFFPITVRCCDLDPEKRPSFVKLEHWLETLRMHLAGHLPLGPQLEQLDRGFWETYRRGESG

ROCK-I = ROCK-I (Homo sapiens, UniProt Q13464); test: ROCK-I biochemical counter-screen; conditions: Table 6; read-out: Biochemical Inhibition IC50 (nM) ROCK-I
Sequence of ROCK-I (Q13464 whole entry, species assumed): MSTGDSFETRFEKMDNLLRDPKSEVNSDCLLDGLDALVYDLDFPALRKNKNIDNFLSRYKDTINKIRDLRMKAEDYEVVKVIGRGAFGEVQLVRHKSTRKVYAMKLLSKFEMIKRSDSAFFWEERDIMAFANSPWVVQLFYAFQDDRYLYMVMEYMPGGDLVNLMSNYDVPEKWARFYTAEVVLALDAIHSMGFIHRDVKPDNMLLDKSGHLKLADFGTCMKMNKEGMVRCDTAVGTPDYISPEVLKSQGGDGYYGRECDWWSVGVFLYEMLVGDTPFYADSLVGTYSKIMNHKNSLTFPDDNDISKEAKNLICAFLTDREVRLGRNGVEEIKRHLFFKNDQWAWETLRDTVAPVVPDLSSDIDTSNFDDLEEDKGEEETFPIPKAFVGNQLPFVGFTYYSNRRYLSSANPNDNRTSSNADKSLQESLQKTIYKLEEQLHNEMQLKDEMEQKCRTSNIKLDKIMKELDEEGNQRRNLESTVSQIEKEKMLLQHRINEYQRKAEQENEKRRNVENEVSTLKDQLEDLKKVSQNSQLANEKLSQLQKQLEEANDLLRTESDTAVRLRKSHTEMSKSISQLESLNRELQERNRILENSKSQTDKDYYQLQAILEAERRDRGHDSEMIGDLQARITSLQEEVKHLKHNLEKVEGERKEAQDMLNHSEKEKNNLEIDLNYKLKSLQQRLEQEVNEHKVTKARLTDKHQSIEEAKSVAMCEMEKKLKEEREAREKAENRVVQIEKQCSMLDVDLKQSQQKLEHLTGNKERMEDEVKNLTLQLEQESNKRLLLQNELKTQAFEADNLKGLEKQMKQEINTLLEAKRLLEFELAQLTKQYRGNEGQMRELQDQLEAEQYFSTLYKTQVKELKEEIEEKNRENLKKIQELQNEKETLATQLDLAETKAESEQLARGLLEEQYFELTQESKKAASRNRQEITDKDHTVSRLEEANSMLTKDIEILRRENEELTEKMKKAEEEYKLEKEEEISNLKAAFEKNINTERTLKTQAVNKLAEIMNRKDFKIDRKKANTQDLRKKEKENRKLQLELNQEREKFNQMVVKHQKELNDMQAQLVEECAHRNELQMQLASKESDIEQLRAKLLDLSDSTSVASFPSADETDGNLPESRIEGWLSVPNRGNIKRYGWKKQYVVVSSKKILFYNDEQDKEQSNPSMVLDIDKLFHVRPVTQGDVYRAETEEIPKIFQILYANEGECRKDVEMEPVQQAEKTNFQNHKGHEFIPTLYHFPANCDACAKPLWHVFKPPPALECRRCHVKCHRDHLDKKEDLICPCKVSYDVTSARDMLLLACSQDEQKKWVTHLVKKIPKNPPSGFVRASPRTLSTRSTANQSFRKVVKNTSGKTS

[1] = Plasma pharmacokinetics studies on rats; conditions: rats; for AUC (iv) / Cl (iv) / T1/2 (iv) / Yd (iv) / Cmax: iv dosing 1 mg/kg; for F (%) (po): po dosing 2 mg/kg; for Cmax: read-out: Cmax (iv)
Description: In vivo pharmacokinetics (PK) studies were conducted for selected compounds during the whole optimization at various stages in order to identify structural elements that are favorable for in vivo applications, and/or to evaluate the feasibility of optimized Limk inhibitors for animal studies.

P450 1A2 = molecular target: T1, P450 1A2 (Homo sapiens, UniProt P05177)
T1 sequence (P05177 1-516): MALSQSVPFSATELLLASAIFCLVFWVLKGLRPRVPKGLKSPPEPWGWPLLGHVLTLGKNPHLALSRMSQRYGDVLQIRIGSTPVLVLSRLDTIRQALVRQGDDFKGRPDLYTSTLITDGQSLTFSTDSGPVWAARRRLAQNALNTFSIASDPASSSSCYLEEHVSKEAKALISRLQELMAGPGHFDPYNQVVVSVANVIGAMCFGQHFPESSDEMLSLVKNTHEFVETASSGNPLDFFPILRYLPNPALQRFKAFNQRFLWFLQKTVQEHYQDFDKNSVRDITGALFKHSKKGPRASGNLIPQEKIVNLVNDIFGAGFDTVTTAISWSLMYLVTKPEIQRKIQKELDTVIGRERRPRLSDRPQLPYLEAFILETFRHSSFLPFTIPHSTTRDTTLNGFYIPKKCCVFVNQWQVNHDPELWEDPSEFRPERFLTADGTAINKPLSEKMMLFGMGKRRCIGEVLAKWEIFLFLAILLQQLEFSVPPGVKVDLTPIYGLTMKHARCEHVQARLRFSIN

ROCK-II = ROCK-II (Homo sapiens, UniProt O75116); test: ROCK-II biochemical counter-screen; conditions: for IC50: means of ≥2 experiments; for pIC50: read-out: ROCK-II IC50
Sequence of ROCK-II (O75116 whole entry, species assumed): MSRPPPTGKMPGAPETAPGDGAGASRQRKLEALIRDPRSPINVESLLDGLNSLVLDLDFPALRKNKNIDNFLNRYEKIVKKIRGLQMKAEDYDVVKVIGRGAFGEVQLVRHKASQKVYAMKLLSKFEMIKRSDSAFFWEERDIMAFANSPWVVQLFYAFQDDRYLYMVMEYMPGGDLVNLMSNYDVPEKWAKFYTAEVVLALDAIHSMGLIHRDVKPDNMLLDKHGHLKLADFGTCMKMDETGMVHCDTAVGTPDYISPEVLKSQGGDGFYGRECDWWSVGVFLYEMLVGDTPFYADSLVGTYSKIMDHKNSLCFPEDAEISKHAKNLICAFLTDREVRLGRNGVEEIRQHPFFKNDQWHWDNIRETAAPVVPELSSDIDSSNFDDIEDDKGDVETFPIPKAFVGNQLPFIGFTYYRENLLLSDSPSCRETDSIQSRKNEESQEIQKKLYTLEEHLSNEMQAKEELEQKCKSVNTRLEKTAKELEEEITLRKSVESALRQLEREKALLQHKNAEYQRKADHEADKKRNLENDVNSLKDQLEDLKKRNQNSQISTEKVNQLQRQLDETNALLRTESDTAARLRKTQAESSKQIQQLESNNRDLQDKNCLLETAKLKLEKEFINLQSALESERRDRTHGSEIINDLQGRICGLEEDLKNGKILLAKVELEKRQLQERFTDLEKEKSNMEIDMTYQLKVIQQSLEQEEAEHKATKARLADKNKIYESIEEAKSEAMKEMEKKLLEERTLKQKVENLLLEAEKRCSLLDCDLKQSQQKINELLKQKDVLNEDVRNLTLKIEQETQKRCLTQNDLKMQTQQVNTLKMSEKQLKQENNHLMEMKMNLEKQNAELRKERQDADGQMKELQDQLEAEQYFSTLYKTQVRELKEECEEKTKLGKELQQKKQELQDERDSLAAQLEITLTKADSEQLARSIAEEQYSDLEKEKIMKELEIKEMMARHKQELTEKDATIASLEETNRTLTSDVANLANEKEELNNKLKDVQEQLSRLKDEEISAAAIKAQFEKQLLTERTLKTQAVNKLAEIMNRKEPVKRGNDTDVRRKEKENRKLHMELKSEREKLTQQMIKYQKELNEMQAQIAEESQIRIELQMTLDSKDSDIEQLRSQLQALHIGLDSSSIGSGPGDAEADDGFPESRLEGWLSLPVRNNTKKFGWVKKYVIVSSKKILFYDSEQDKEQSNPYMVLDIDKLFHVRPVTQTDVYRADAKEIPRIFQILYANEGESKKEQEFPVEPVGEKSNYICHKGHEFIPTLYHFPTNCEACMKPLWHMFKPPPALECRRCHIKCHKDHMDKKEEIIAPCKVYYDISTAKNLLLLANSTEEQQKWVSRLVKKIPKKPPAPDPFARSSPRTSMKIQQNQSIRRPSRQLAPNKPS

[2] = Microsomal stability, rat liver microsomes; assay type: in vitro ADME
[3] = Microsomal stability, human liver microsomes; assay type: in vitro ADME
[4] = system: p-cofilin in CEM-SS T cells; test: Cofilin phosphorylation cell assay in CEM-SS T cell lines; assay type: cell-based; conditions: Homo sapiens
Description: Cells were lysed in NuPAGE LDS Sample Buffer (Invitrogen) followed by sonication. Samples were heated at 90° C. for 10 minutes, separated by SDS-PAGE, and then transferred onto nitrocellulose membranes (Invitrogen). The membranes were washed in TBST for 3 minutes and then blocked for 30 minutes at room temperature with Starting Block blocking buffer (Pierce). […] The blots were washed three times for 15 minutes and scanned with Odyssey Infrared Imager (Li-cor Biosciences). The same blots were also stripped and reprobed with antibodies against GAPDH (Abcam) as a loading control.

[5] = system: cofilin phosphorylation in A7r5 cells; test: In-cell Western assay of cofilin phosphorylation in A7r5 cells; assay type: cell-based; conditions: for pIC50: A7R5, A7r5 cells, read-out: Cofilin Phosphorylation In A7r5 Cells (IC50)
Description: A7r5 (15,000 cells/well) were plated in a clear-bottomed Packard View black 96-well plate in 100 μl of 10% FBS DMEM:F12 medium and were allowed to attach overnight. The next day, the cells were serum starved in 1% FBS DMEM medium for 2 hr and then treated with the compounds for 1 hr. […] Next day, they were washed twice with PBS-0.1% Tween 20 (PBST) washing solution for 5 min each at room temperature on the orbital shaker, followed by one wash with Licor Blocking Buffer containing 0.05% Tween-20 for 5 min on the shaker at RT. The cells were then incubated with secondary antibody goat anti-rabbit IR800 (1:500 dilution) for 1 hr at RT in the dark (covered the plate with foil) in Licor blocking buffer-containing Tween-20. Following this, cells were washed twice with PBST for 5 min each at room temperature and then once with Licor blocking buffer-containing 0.05% Tween-20. The wells were then incubated with ToPro 3 stain (nucleic acid staining), diluted 1:4000 in Licor blocking buffer or Licor blocking buffer with 0.05% Tween-20 for 30 min at room temperature in the dark. Finally the plates were washed twice with PBS and analyzed using the Odyssey LICOR Infrared Scanner.

[6] = Table 4, read-out: IC50 (nM) Limk1
[7] = Table 4, read-out: IC50 (nM) ROCK-II

Sequence of P450 3A4 (P08684 whole entry): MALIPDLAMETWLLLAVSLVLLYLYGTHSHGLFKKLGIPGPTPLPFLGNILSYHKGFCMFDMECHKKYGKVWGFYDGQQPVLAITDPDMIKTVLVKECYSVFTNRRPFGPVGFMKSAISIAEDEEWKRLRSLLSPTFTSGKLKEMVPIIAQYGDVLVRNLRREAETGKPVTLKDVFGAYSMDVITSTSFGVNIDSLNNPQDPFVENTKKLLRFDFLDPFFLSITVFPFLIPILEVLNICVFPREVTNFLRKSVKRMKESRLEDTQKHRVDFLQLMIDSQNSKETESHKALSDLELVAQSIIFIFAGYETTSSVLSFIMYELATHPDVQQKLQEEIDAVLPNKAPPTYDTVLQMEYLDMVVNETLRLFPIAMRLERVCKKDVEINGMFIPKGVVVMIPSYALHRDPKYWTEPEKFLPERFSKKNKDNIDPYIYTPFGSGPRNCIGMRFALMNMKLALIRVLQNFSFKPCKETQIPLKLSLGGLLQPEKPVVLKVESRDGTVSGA
Sequence of JNK3 (P53779 whole entry, species assumed): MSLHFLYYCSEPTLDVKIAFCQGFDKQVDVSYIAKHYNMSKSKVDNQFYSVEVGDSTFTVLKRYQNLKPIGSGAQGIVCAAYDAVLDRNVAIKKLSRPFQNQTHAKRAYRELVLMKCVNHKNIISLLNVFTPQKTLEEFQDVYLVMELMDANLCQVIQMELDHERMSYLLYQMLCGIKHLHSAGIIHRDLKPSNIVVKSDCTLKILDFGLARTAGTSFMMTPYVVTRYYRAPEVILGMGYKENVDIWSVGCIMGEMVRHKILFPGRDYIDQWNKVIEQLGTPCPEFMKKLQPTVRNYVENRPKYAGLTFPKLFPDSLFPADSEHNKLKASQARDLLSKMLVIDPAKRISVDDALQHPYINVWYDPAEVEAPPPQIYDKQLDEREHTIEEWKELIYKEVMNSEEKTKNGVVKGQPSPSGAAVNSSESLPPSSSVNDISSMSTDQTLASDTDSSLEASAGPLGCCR

IC50 (JNK3) | AUC (iv) [1] | Cl (iv) [1] | T1/2 (iv) [1] | Yd (iv) [1] | Cmax [1] | IC50 (ROCK-II; [7]) | Microsomal Stability t1/2 (min) Rat ([2]; rat liver microsomes) | SMILES | P450 % inh. at 10 μM 3A4 (P450 3A4) | P450 % inh. at 10 μM 2D6 (P450 2D6) | P450 % inh. at 10 μM 2C9 (P450 2C9) | IC50 (Limk1; [6]) | IC50 (ROCK-I) | P450 % inh. at 10 μM 1A2 (P450 1A2; 10 μM) | Microsomal Stability t1/2 (min) Human [3] | inhibition at 1 µM [4] | other results
– | 0.6 µM·h | 42.2 mL/min/kg | 6.1 h | 17.1 L/kg | 0.2 µM | > 10000 nM | – | Cc1c[nH]c2ncnc(-c3ccc(NC(=O)N(CCN(C)C)c4ccc(Cl)cc4)cc3)c12 [Compound 18r, 1-(4-Chlorophenyl)-1-(2-(dimethylamino)ethyl)-3-(4-(5-methyl-7H-pyrrolo[2,3-d]pyrimidin-4-yl)phenyl)urea] | – | – | – | 20 nM | – | – | – | > 50% | pIC50 (Limk1; read-out: Limk1 IC50): ~7.70; F (%) (po) [1]: 0%; pIC50 (ROCK-II): < 5.00
> 10000 nM | 5.1 µM·h | 6.9 mL/min/kg | 3.4 h | 1.2 L/kg | 3.5 µM | – | 13 min | COCCN(C(=O)Nc1ccc(-c2ncnc3[nH]c(C)c(C)c23)cc1F)c1ccc(Cl)cc1 [Compound 18x, 1-(4-Chlorophenyl)-3-(4-(5,6-dimethyl-7H-pyrrolo[2,3-d]pyrimidin-4-yl)-2-fluorophenyl)-1-(2-methoxyethyl)urea] | 52% | 15% | 50% | – | – | 23% | – | > 50% | pIC50 [5]: 6.60; IC50 (Limk1; Table 5, read-out: Biochemical IC50 (nM) Limk1): 8 nM; IC50 (ROCK-II; Table 5, read-out: Biochemical IC50 (nM) ROCK-II): > 20000 nM; pIC50 (ROCK-II): < 4.70
> 10000 nM | 13.2 µM·h | 3.0 mL/min/kg | 2.6 h | – | 10.5 µM | 4360 nM | 73 min | Cc1c[nH]c2ncnc(-c3ccc(NC(=O)N(CCO)c4ccc(Cl)cc4)cc3)c12 [Compound 18h, 1-(4-Chlorophenyl)-1-(2-hydroxyethyl)-3-(4-(5-methyl-7H-pyrrolo[2,3-d]pyrimidin-4-yl)phenyl)urea] | 27% | – | 23% | – | 5920 nM | – | >120 min | – | pIC50 [5]: ~7.00
– | 0.7 µM·h | 55.9 mL/min/kg | 5.1 h | – | 1.1 µM | 460 nM | – | Cc1c[nH]c2ncnc(-c3ccc(NC(=O)N(CCN)c4ccc(Cl)cc4)cc3)c12 [Compound 18p, 1-(2-Aminoethyl)-1-(4-chlorophenyl)-3-(4-(5-methyl-7H-pyrrolo[2,3-d]pyrimidin-4-yl)phenyl)urea] | – | – | – | – | – | – | – | > 50% | –
> 10000 nM | 19.4 µM·h | 2.1 mL/min/kg | 2.2 h | – | 10.6 µM | > 10000 nM | 40 min | COc1ccc(N(CCO)C(=O)Nc2ccc(-c3ncnc4[nH]cc(C)c34)cc2)cc1 [Compound 18n, 1-(2-hydroxyethyl)-1-(4-methoxyphenyl)-3-(4-(5-methyl-7H-pyrrolo[2,3-d]pyrimidin-4-yl)phenyl)urea] | – | – | – | 53 nM | > 20000 nM | – | 56 min | – | –

SMILES | IC50 (JNK3) | AUC (iv) [1] | Cl (iv) [1] | T1/2 (iv) [1] | Yd (iv) [1] | Cmax [1] | IC50 (ROCK-II; [7]) | Microsomal Stability t1/2 (min) Rat ([2]; rat liver microsomes) | P450 % inh. at 10 μM 3A4 (P450 3A4) | P450 % inh. at 10 μM 2D6 (P450 2D6) | P450 % inh. at 10 μM 2C9 (P450 2C9) | IC50 (Limk1; [6]) | IC50 (ROCK-I) | P450 % inh. at 10 μM 1A2 (P450 1A2; 10 μM) | Microsomal Stability t1/2 (min) Human [3] | inhibition at 1 µM [4] | other results
Cc1ccc(N(CCO)C(=O)Nc2ccc(-c3ncnc4[nH]cc(C)c34)cc2)cc1 [Compound 18k, 1-(2-Hydroxyethyl)-3-(4-(5-methyl-7H-pyrrolo[2,3-d]pyrimidin-4-yl)phenyl)-1-p-tolylurea] | > 10000 nM | 15.6 µM·h | 2.7 mL/min/kg | 1.8 h | 0.3 L/kg | 9.4 µM | 5930 nM | 39 min | 5% | −4% | 24% | 37 nM | 7630 nM | −5% | 56 min | – | F (%) (po) [1]: 24%
Cc1c[nH]c2ncnc(-c3ccc(NC(=O)N(CCO)c4ccc(F)cc4)cc3)c12 [Compound 18e, 1-(4-Fluorophenyl)-1-(2-hydroxyethyl)-3-(4-(5-methyl-7H-pyrrolo[2,3-d]pyrimidin-4-yl)phenyl)urea] | > 10000 nM | – | – | – | – | – | 3240 nM | 52 min | 25% | 3% | 13% | – | 3920 nM | −4% | 44 min | – | –
Cc1c[nH]c2ncnc(-c3ccc(NC(=O)N(CCO)c4cccc(Cl)c4)cc3)c12 [Compound 18g, 1-(3-Chlorophenyl)-1-(2-hydroxyethyl)-3-(4-(5-methyl-7H-pyrrolo[2,3-d]pyrimidin-4-yl)phenyl)urea] | – | – | – | – | – | – | 11300 nM | – | 42% | 2% | 31% | 67 nM | 15000 nM | – | – | – | IC50 ([5]; A7R5, read-out: Cofilin Phosphorylation In A7r5 Cells (IC50, nM)): 372 nM; P450 % inh. at 10 μM 1A2 (P450 1A2): −19/31/2/42%; Microsomal Stability t1/2 (min) Rat [2]: 20 min
